From patent publication US20140329682A1, “METHOD OF CONTROLLING WEED IN A SUGAR CANE FIELD” (SUMITOMO CHEMICAL COMPANY, LIMITED, priority 2011, published 2014) come the findings set out here.

Data set [1] has as its system sugar cane. As to the kind of experiment: Phytotoxicity on sugar cane, spray above weed before planting, azole-fungicide-treated stem cutting (Example 11). The protocol: (§1) The “phytotoxicity” evaluated herein is the damage characteristic determined to be due to a treated compound, and is clearly discriminated from the damage characteristic caused by a harmful animal or plant disease.
A soil is packed into a plastic pat, and seeds of Amaranthus retroflexus are seeded thereon. Thereafter, the pot is placed in a greenhouse, and the weed is grown.
A 30 cm to 40 cm stem cutting of sugar cane is placed on a wet soil, and germination is stimulated. The stem cutting from which a bud has grown to about 1 cm is selected, and the length of the stem cutting is adjusted to be 3 cm so that the stem cutting has one node. Azaconazole, bitertanol, bromoconazole, cyproconazole, difenoconazole, diniconazole, epoxyconazole, fenbuconazole, fluquinconazole, flusilazole, flutriafol, hexaconazole, imibenconazole, ipconazole, metconazole, myclobutanil, penconazole, propiconazole, prothioconazole, simeconazole, tebuconazole, tetraconazole, triadimenol, triticonazole, fenarimol, nuarimol, pyrifenox, imazalil, oxpoconazole fumarate, pefurazoate, procloraz or triflumizole is adhered to the stem cutting.
(§2) The pot for a test is placed in a greenhouse.

For data set [2], the system named is sugar cane. Put plainly: Phytotoxicity on sugar cane, soil surface spray, insecticide-treated stem cutting (Example 6).
Excerpt: as §1
A 30 cm to 40 cm stem cutting of sugar cane is placed on a wet soil, and germination is stimulated. The stem cutting from which a bud has grown to about 1 cm is selected, and the length of the stem cutting is adjusted to be 3 cm so that the stem cutting has one node. Clothianidin, thiamethoxiam, imidacloprid, dinotefuran, nitenpyram, acetamiprid or thiacloprid is adhered to the stem cutting. A soil is packed into a plastic pot, and seeds of Amaranthus retroflexus are seeded thereon. The stem cutting of sugar cane treated with clothianidin, thiamethoxiam, imidacloprid, dinotefuran, nitenpyram, acetamiprid or thiacloprid is planted in the soil packed into the pot at a depth of 2 cm. […] Thereafter, the pot for a test is placed in a greenhouse.

The subject of data set [3] is Amaranthus retroflexus. As to the kind of experiment: Herbicidal activity, spray above weed before planting, insecticide-treated stem cutting (Example 7). Particulars: sprayed above weed, 3 cm stem cutting treated with clothianidin, thiamethoxiam, imidacloprid, dinotefuran, nitenpyram, acetamiprid or thiacloprid planted one week after treatment, four weeks after treatment. The data set is classed as in vivo.

In data set [4] the test system is Amaranthus retroflexus. As to the kind of experiment: Herbicidal activity, spray above weed before planting, azole-fungicide-treated stem cutting (Example 11). The settings on record: sprayed above weed, 3 cm stem cutting treated with azaconazole, bitertanol or another listed azole-type fungicide planted one week after treatment, four weeks after treatment. The format is in vivo.

Data set [5] has as its system Amaranthus retroflexus. As to the kind of experiment: Herbicidal activity, spray above weed one week before planting (Example 5). The settings on record: sprayed above weed three weeks after seeding, 3 cm stem cutting planted one week after treatment, four weeks after treatment. The format is in vivo.
Excerpt: A 30 cm to 40 cm stem cutting of sugar cane is placed on a wet soil, and germination is stimulated. The stem cutting from which a bud has been grown to about 1 cm is selected, and the length of the stem cutting is adjusted to be 3 cm so that the stem cutting has one node.
Data set [6] concerns Amaranthus retroflexus. As to the kind of experiment: Herbicidal activity, spray above weed before planting, strobilurin-treated stem cutting (Example 9). The data set is classed as in vivo. The settings on record: sprayed above weed, 3 cm stem cutting treated with kresoxim-methyl, azoxystrobin or another listed strobilurin fungicide planted one week after treatment, four weeks after treatment.
Excerpt: A 30 cm to 40 cm stem cutting of sugar cane is placed on a wet soil, and germination is stimulated. The stem cutting from which a bud has grown to about 1 cm is selected, and the length of the stem cutting is adjusted to be 3 cm so that the stem cutting has one node. Kresoxim-methyl, azoxystrobin, trifloxystrobin, fluoxastrobin, picoxystrobin, pyraclostrobin, dimoxystrobin, pyribencarb, metominostrobin, orysastrobin, enestrobin, pyraoxystrobin or pyrametostrobin is adhered to the stem cutting.

Data set [7] relates to sugar cane. Put plainly: Phytotoxicity on sugar cane, soil surface spray on day of planting (Example 1). The format is in vivo. The settings on record: four weeks after treatment, scale 0 to 100. As to the method: The stem cutting from which a bud had grown to about 1 cm was selected, and the length of the stem cutting was adjusted to be 3 cm, 15 cm or 25 cm. The stem cutting of 3 cm or 15 cm had only one node, and the stem cutting of 25 cm had two nodes. A soil was packed into a 32 cm×25 cm×11 cm plastic pot, and seeds of Amaranthus retroflexus were seeded thereon. […] On the date when the stem cutting was planted, and after planting of the stem cutting, a water-diluted liquid of a flumioxazin water dispersible granule (water dispersible granule containing 51% floumioxazin, trade name: Valor SX, manufactured by Valent USA Corporation) (100 ppm or 250 ppm) was uniformly sprayed on the soil surface with a sprayer at an amount described in Table 1. Thereafter, the pot for a test was placed in a greenhouse. Four weeks after treatment with flumioxazin, phytotoxicity on sugar cane and the herbicidal activity against Amaranthus retroflexus were determined.

Data set [8] concerns sugar cane. As to the kind of experiment: Phytotoxicity on sugar cane, spray above weed before planting, insecticide-treated stem cutting (Example 7). As to the method:
as §1
A soil is packed into a plastic pot, and seeds of Amaranthus retroflexus are seeded thereon. Thereafter, the pot is placed in a greenhouse, and the weed is grown.
A 30 cm to 40 cm stem cutting of sugar cane is placed on a wet soil, and germination is stimulated. The stem cutting from which a bud has grown to about 1 cm is selected, and the length of the stem cutting is adjusted to be 3 cm so that the stem cutting has one node. Clothianidin, thiamethoxiam, imidacloprid, dinotefuran, nitenpyram, acetamiprid or thiacloprid is adhered to the stem cutting.
as §2

Data set [9] deals with sugar cane. Put plainly: Phytotoxicity on sugar cane, soil surface spray after planting (Example 4).
Excerpt: as §1
A 30 cm to 40 cm stem cutting of sugar cane is placed on a wet soil, and germination is stimulated. The stem cutting from which a bud has grown to about 1 cm is selected, and the length of the stem cutting is adjusted to be 3 cm so that the stem cutting has one node. A soil is packed into a plastic pot, and seeds of Amaranthus retroflexus are seeded thereon. The stem cutting of sugar cane is planted in the soil packed in the pot at a depth of 2 cm. […] Thereafter, the pot for a test is placed in a greenhouse.

The test system of data set [10] is Amaranthus retroflexus. As to the kind of experiment: Herbicidal activity, soil surface spray after planting (Example 4). The data set is classed as in vivo. The settings on record: 3 cm stem cutting, one node, soil surface spray on date of planting, four weeks after treatment.
The mark [11] stands for this setting: Example 11, sprayed above weed, 3 cm stem cutting treated with azaconazole, bitertanol or another listed azole-type fungicide planted one week after treatment, four weeks after treatment.
[12] abbreviates: Example 6, 3 cm stem cutting treated with clothianidin, thiamethoxiam, imidacloprid, dinotefuran, nitenpyram, acetamiprid or thiacloprid, soil surface spray, four weeks after treatment.
[13] abbreviates: Example 7, sprayed above weed, 3 cm stem cutting treated with clothianidin, thiamethoxiam, imidacloprid, dinotefuran, nitenpyram, acetamiprid or thiacloprid planted one week after treatment, four weeks after treatment.

With `C#CCN1C(=O)COc2cc(F)c(N3C(=O)C4=C(CCCC4)C3=O)cc21` [Flumioxazin, flumioxazin], the phytotoxicity result in data set [1] (setting [11]), in data set [2] (setting [12]) and in data set [8] (setting [13]) was “significant phytotoxicity on sugar cane is not observed” throughout. In addition, the “herbicidal activity against Amaranthus retroflexus” value (“herbicidal activity” for short) in [3], in data set [4], in data set [5] and in data set [6] was “the controlling effect on a weed can be confirmed” throughout. Also, the “Phytotoxicity on sugar cane” value in [7] (50 g (active ingredient)/ha, stem cutting 3 cm (one node)) is reported as 0; in data set [7] (50 g (active ingredient)/ha, stem cutting 15 cm (one node)), 5; in data set [7] (50 g (active ingredient)/ha, stem cutting 25 cm (two nodes)) it was 20; in [7] (125 g (active ingredient)/ha, stem cutting 3 cm (one node)), 0; in data set [7] (125 g (active ingredient)/ha, stem cutting 15 cm (one node)) it was 5; in [7] (125 g (active ingredient)/ha, stem cutting 25 cm (two nodes)), 20.

In the case of `C#CCN1C(=O)COc2cc(F)c(-n3c(=O)n(C)c(=S)n(C)c3=O)cc21` [compound of the formula (I)], the phytotoxicity result in [1] (in vivo), in [2] (in vivo), in data set [9] (in vivo) and in [8] (in vivo) was “significant phytotoxicity on sugar cane is not observed” in each case. Also, the “herbicidal activity” value in [3], in data set [4], in data set [5], in [6] and in data set [10] was “the controlling effect on a weed can be confirmed” each time.

Regarding `CC(C)Oc1cc(-n2nc(C(C)(C)C)oc2=O)c(Cl)cc1Cl` [oxadiazon], the phytotoxicity result in data set [1] (in vivo), in data set [2] (in vivo), in data set [9] (in vivo) and in data set [8] (in vivo) was “significant phytotoxicity on sugar cane is not observed” in each case. Moreover, the “herbicidal activity” value in data set [3], in [4], in data set [5], in [6] and in data set [10] was “the controlling effect on a weed can be confirmed” each time.

`CCOc1cc(Oc2ccc(C(F)(F)F)cc2Cl)ccc1[N+](=O)[O-]` [oxyfluorfen]: the phytotoxicity result in data set [1] (setting [11]) is recorded as “significant phytotoxicity on sugar cane is not observed”; in data set [2] (setting [12]), “significant phytotoxicity on sugar cane is not observed”; in [9] (Example 4, 3 cm stem cutting, one node, soil surface spray on date of planting, four weeks after treatment), “significant phytotoxicity on sugar cane is not observed”; in [8] (setting [13]) it was “significant phytotoxicity on sugar cane is not observed”. Moreover, the “herbicidal activity” value in [3], in data set [4], in [5], in data set [6] and in data set [10] was “the controlling effect on a weed can be confirmed” in each case.

With `Cc1nn(-c2cc(NS(C)(=O)=O)c(Cl)cc2Cl)c(=O)n1C(F)F` [sulfentrazone], the phytotoxicity result in [1] (in vivo), in data set [2] (in vivo), in [9] (in vivo) and in data set [8] (in vivo) was “significant phytotoxicity on sugar cane is not observed” in each case. Moreover, the “herbicidal activity” value in data set [3], in data set [4], in [5], in [6] and in [10] was “the controlling effect on a weed can be confirmed” throughout.
